Data: ChEMBL document CHEMBL1201862, “PubChem BioAssay data set” (2004)
Calls of active or inactive are those of the source.

Tests used:
[1] = HPDE-C7 pancreatic duct cell viability loss – fluorescence, HTS (AID 430); type: functional, cell-based; conditions: Homo sapiens
[2] = viability loss of HPDE-C7K cells – cell-based, fluorescence, HTS, primary screen (AID 431); type: functional; conditions: Homo sapiens
NS3 = NS3 (Hepatitis C virus, UniProt A3EZJ3); experiment: PubChem AID 2173; set-up: species or system Hepacivirus hominis
Chain of NS3 (A3EZJ3 whole entry): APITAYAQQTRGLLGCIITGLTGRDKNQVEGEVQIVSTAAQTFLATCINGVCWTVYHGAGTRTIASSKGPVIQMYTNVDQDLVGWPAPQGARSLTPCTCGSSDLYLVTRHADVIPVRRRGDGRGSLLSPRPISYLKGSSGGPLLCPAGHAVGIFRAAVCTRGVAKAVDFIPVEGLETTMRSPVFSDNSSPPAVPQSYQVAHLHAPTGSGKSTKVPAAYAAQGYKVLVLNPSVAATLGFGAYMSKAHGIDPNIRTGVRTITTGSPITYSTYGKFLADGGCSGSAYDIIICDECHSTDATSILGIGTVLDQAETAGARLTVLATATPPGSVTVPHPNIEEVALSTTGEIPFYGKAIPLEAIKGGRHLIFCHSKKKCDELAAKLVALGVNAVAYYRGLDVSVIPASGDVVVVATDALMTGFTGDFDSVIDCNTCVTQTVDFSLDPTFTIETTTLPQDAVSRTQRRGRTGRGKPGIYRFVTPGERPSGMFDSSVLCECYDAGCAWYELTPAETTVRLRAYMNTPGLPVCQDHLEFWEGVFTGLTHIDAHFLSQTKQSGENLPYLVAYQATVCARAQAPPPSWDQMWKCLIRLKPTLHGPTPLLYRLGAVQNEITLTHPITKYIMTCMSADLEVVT

[3] = molecular target: T1, Neuropeptide Y receptor type 1 (Homo sapiens, UniProt P25929); type: functional;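 on IC50: HEK293 cells with a CNG channel challenged with NPY then isoproterenol; potency as antagonist that reverses NPY suppression of cAMP signal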
T1 sequence (P25929 whole entry): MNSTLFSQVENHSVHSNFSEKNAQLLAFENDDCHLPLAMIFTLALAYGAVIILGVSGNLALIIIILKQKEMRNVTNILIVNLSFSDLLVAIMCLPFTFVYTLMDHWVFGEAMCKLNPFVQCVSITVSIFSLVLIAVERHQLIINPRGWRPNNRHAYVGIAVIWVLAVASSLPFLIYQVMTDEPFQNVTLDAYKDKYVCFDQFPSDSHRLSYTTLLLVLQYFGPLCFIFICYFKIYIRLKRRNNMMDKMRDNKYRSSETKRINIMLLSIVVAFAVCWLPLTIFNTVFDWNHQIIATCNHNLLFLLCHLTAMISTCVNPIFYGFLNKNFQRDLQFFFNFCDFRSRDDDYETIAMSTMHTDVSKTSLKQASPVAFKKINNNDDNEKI

[4] = molecular target: T2, Neuropeptide Y receptor type 2 (Homo sapiens, UniProt P49146); type: functional, cell-based;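 on IC50: HEK293 cells expressing the receptor and a CNG channel; stimulus was NPY near EC95 followed by isoproterenol to raise cAMP; antagonist potency measured as restoring cAMP signal that NPY suppresses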
T2 sequence (P49146 whole entry): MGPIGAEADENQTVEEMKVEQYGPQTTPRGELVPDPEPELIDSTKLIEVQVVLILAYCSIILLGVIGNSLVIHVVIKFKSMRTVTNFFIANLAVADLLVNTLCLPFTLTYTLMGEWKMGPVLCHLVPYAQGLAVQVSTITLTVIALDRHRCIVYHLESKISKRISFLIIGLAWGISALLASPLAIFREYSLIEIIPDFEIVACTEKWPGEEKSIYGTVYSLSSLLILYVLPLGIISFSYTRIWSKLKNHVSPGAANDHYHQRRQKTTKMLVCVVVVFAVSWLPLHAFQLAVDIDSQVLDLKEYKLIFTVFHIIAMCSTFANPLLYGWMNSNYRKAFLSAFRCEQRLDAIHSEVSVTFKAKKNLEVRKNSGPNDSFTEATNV

Beta-lactamase [5] = molecular target: Beta-lactamase (Salmonella choleraesuis (strain SC-B67), UniProt Q5J463)
Chain of Beta-lactamase (Salmonella choleraesuis (strain SC-B67), UniProt Q5J463) (Q5J463 whole entry): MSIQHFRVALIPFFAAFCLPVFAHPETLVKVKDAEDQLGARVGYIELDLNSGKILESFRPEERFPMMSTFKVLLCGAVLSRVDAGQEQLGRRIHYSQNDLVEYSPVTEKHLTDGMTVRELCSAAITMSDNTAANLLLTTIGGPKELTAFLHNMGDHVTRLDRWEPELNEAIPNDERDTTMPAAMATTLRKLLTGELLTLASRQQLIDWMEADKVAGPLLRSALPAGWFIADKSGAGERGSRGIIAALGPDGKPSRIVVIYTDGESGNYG

HEK293 [6] = experiment: optical interference in Abeta FP readout, dose response, artefact control for IDE activator project, biochemical, fluorescence polarization (AID 588442); type: functional, cell-based; conditions: Homo sapiens
Beta-lactamase [7] = molecular target: Beta-lactamase (Pseudomonas aeruginosa, UniProt Q79MP6);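 further: biochemical dose-response test of metallo-beta-lactamase enzyme inhibition, read out by epi-absorbance; purified recombinant IMP-1 metallo-beta-lactamase with nitrocefin as substrate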
Chain of Beta-lactamase (Pseudomonas aeruginosa, UniProt Q79MP6) (Q79MP6 whole entry): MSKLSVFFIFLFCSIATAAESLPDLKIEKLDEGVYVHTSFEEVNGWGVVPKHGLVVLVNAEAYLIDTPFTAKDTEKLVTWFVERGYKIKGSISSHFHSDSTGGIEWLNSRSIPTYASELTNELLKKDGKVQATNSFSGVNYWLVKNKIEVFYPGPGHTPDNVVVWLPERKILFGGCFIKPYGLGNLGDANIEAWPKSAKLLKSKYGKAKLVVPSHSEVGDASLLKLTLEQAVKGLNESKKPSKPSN

Insulin-degrading enzyme [8] = molecular target: T3, Insulin-degrading enzyme (Homo sapiens, UniProt P14735); experiment: cellular IDE activation of Abeta substrate cleavage – fluorescence polarization, HEK cells, dose response (AID 588439); type: functional, cell-based
T3 sequence (P14735 whole entry): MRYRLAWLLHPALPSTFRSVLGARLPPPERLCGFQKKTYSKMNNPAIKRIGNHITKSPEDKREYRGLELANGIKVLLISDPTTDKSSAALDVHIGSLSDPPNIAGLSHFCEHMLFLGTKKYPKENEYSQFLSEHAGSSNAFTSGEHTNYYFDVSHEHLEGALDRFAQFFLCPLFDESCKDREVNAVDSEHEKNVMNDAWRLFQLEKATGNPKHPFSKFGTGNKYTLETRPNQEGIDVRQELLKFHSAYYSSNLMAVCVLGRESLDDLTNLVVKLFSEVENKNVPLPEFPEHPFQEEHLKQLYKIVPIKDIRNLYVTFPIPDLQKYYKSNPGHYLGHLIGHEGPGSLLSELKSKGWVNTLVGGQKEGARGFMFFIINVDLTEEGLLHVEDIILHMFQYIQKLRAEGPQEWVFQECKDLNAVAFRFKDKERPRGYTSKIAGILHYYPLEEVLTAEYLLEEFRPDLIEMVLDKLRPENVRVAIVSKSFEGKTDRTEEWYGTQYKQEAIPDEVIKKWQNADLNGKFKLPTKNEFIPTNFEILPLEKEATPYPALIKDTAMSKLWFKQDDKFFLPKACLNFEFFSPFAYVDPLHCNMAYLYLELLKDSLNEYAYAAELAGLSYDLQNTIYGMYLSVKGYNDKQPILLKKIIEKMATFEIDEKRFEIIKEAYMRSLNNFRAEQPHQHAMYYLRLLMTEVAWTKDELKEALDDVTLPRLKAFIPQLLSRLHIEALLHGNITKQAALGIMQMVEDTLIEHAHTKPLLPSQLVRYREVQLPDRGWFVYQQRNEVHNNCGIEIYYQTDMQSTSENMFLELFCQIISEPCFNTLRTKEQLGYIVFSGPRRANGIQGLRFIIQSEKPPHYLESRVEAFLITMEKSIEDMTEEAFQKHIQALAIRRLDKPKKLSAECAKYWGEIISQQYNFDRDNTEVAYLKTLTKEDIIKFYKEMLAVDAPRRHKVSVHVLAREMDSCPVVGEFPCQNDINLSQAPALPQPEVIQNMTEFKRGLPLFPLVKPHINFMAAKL

Insulin-degrading enzyme [9] = molecular target: T3, Insulin-degrading enzyme; experiment: recombinant IDE activation, cell-free – biochemical, fluorescence polarization, counter-screen for IDE activator project, dose response (AID 588681)
HEK293 [10] = experiment: membrane integrity loss in HEK cells – cell-based, fluorescence, cytotoxicity control for IDE activator project, dose response (AID 588440); type: functional; conditions: Homo sapiens;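 further: cytotoxicity by LDH release measuring loss of membrane integrity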
[11] = molecular target: E3 ubiquitin-protein ligase XIAP (Homo sapiens, UniProt P98170); experiment: Counter Screen using XIAP-Bir3 for Chemical Antagonists of Bir1/2 domains of IAP-family anti-apoptotic proteins. [Related pubchem assays (depositor defined):AID1018, AID1449, AID1514, AID1638, AID1749, AID1750, AID488957, AID488963]
Chain of E3 ubiquitin-protein ligase XIAP (P98170 whole entry): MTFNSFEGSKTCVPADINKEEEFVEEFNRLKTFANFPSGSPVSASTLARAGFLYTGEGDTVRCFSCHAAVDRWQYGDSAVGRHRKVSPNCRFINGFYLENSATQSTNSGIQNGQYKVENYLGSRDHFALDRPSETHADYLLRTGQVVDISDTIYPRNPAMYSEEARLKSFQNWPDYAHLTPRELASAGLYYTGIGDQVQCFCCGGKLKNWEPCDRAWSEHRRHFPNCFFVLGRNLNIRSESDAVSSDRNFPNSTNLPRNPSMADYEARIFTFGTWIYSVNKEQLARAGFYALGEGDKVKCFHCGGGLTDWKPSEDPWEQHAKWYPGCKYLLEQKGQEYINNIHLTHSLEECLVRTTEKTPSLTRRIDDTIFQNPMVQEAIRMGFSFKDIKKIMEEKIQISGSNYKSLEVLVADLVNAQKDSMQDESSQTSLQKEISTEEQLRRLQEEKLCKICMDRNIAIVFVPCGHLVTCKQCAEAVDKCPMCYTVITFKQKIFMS

Large T antigen = Large T antigen (Simian virus 40, UniProt P03070); type: functional, Betapolyomavirus macacae;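 further: Confirmatory-stage PubChem screen for compounds that inhibit SV40 T antigen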
Chain of Large T antigen (P03070 whole entry): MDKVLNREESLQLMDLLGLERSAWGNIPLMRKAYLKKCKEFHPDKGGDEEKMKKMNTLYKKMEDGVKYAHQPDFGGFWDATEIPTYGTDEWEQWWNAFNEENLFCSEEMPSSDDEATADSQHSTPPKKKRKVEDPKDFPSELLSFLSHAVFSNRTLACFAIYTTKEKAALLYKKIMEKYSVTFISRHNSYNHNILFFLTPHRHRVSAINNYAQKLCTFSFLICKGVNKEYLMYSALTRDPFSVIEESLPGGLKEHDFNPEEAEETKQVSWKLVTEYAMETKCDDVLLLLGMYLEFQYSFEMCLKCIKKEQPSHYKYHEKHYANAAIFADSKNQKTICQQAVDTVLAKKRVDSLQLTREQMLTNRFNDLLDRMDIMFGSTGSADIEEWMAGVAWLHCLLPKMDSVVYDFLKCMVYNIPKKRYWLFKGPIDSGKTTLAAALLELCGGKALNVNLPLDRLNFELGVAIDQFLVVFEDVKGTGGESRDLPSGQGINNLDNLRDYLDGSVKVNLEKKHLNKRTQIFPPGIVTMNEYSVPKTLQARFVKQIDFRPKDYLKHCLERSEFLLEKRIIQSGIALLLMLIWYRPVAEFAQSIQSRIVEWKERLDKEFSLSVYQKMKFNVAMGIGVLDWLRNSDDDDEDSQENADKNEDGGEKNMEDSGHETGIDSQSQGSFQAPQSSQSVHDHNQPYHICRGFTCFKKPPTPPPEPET

[12] = fluconazole-exposed Candida albicans growth modulators – fluorescence, retest, confirmation (AID 2467); type: functional, cell-based
[13] = molecular target: ATP-dependent molecular chaperone HSP82 (Candida albicans (strain WO-1) (Yeast), UniProt C4YTQ8); experiment: steroid-induced GRE reporter decrease in yeast – S. cerevisiae, luminescence, Hsp90 inhibitor project, dose response (AID 2400); type: functional, cell-based;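 further: beta-galactosidase luminescence from glucocorticoid response element reporter as proxy for Hsp90 function; inhibitor potency where signal loss means Hsp90 inhibition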
Chain of ATP-dependent molecular chaperone HSP82 (C4YTQ8 whole entry, the tested form may be a part): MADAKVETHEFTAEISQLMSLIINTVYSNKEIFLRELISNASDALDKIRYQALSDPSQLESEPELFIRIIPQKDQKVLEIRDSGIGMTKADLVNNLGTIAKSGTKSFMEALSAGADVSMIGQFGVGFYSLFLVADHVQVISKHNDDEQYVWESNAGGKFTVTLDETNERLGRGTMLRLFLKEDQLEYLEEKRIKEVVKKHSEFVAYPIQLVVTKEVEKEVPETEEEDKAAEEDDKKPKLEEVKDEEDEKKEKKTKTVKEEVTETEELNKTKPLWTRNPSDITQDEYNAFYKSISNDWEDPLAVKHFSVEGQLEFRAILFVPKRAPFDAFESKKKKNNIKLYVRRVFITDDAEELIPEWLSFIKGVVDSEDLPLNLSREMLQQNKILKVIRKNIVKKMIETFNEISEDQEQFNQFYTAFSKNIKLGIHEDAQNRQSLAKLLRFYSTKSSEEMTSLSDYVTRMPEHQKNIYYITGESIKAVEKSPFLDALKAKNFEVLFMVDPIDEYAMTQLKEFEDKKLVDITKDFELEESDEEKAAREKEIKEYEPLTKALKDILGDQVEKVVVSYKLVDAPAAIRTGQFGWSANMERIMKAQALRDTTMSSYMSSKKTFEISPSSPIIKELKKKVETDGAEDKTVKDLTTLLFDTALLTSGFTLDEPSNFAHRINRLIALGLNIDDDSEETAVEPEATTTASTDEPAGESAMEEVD

[14] = CCR5-tropic HIV-1 fusion blockers – cell-based, CCR5-tropic Env, dose response (AID 2279); type: functional
[15] = NIH-3T3 fibroblast cytotoxicity, dose response, cytotoxicity control, cell-based, fluorescence, Alamar Blue, secondary assay (AID 2327); type: functional;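 further: NIH-3T3 mouse fibroblasts cultured with fluconazole at 8 µg/mL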
[16] = molecular target: T4, Serine/threonine-protein phosphatase (Candida dubliniensis (strain CD36 / CBS 7987 / NCPF 3949 / NRRLY-17841) (Yeast), UniProt B9W6M3); experiment: blockers of CaCl2-induced CDRE-lacZ signaling – S. cerevisiae, luminescence, secondary, dose response (AID 2388); type: functional, cell-based;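 further: yeast reporter cells carrying a calcineurin-responsive lacZ construct stimulated with calcium chloride; luminescent beta-galactosidase reporter signal in whole cells rather than isolated phosphatase activity; potency for inhibition where a drop in reporter signal means calcineurin blockade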
T4 sequence (B9W6M3 whole entry): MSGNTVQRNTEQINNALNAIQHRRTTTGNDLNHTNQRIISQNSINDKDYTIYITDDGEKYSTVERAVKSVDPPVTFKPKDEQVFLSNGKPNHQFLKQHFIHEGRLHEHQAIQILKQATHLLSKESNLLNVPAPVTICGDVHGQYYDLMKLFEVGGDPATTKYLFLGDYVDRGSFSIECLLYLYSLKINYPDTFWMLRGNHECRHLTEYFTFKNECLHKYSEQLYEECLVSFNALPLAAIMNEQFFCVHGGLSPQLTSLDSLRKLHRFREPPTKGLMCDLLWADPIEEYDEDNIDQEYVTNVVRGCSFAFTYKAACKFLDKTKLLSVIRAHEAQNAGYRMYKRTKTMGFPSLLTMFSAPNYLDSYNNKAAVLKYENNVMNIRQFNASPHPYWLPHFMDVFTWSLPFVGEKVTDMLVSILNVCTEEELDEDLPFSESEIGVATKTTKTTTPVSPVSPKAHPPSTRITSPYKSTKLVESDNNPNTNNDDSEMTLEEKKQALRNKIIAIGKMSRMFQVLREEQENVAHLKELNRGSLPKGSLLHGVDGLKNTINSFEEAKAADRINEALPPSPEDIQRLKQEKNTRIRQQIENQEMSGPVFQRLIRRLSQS

[17] = test system: Streptococcus sp. 'group A'; experiment: Streptococcus pyogenes SK(-)GAS viability under kanamycin – luminescence, BacTiterGlo, confirmation, counter-screen for streptokinase expression inhibitor project, dose response (AID 1900); type: functional, organism-based
[18] = molecular target: T2, Neuropeptide Y receptor type 2; experiment: Fluorescence-based counterscreen for agonists of NPY-Y1: cell-based high-throughput dose response assay for agonists of NPY-Y2.; type: functional
Streptococcus = experiment: GAS UMAA2166 growth inhibition – luminescence, BacTiterGlo, counter-screen for streptokinase expression inhibitor project, dose response (AID 1915); type: functional, organism-based;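 further: potency for reduction of bacterial viability or growth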
[19] = M. tuberculosis H37Rv growth inhibitors, H37Rv strain (AID 1626); type: functional
HEK293 [20] = experiment: Fluorescence-based counterscreen for potentiators or agonists of NPY-Y1: cell-based high-throughput dose response assay for inhibitors of cyclic nucleotide gated ion channel (CNGC) activity. In this assay, the parental HEK293 cell line transfected with a cyclic-nucleotide gated ion channel (CNGC)-based cAMP sensor is used to measure inhibition of isoproterenol-induced CNGC …; type: functional; conditions: Homo sapiens
[21] = molecular target: T1, Neuropeptide Y receptor type 1; experiment: Fluorescence-based dose response cell-based high-throughput screening assay for potentiators or agonists of NPY-Y1.; type: functional
[22] = molecular target: T2, Neuropeptide Y receptor type 2; experiment: Fluorescence counterscreen for potentiators or agonists of NPY-Y1: Cell-based high-throughput dose response assay for potentiators or agonists of NPY-Y2.; type: functional
Streptokinase A = molecular target: T5, Streptokinase A (Streptococcus pyogenes serotype M1, UniProt P10520); experiment: viability-normalized secreted streptokinase activity reduction – plasminogen activation absorbance, OD405, dose response (AID 1914); type: functional, Streptococcus pyogenes M1 GAS;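 further: secreted streptokinase activity via plasminogen activation per viability signal from cell pellet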
T5 sequence (P10520 whole entry): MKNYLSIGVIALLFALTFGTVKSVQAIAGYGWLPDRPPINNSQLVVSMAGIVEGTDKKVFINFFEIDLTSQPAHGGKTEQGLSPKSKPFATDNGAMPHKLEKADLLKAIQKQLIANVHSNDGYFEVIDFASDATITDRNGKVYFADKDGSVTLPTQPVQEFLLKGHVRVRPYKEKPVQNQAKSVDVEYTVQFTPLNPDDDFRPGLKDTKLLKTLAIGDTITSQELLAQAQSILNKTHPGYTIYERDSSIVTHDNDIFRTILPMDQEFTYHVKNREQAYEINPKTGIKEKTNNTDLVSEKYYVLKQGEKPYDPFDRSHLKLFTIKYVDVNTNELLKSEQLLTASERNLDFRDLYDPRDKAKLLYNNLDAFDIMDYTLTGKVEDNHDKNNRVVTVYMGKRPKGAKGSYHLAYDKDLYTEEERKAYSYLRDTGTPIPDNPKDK

In the case of O=C(c1ccc2nc(-c3ccco3)c(-c3ccco3)nc2c1)N1CCN(c2ccccc2)CC1, the EC50 [1] is reported as 18 µM (active), the EC50 [2] is reported as > 20 µM (not active) and the IC50 (NS3) is reported as 19.7 µM (not active).

In the case of CCCCNC(=O)c1onc(CSc2ccccc2F)c1C(=O)O, the IC50 [3] is reported as 14.7 µM (not active) and the IC50 [4] is reported as 13.3 µM (not active).

With Nn1c(Cc2cccc3ccccc23)nnc1SCc1c(Cl)cccc1Cl the IC50 [3] was 5.1 µM (active) and the IC50 [4] was 4.3 µM (active).

For O=c1ccc2c(-c3ccccc3)c3ccc(O)cc3oc-2c1, the IC50 (Beta-lactamase [5]) was 0.19 µM (active), the EC50 (HEK293 [6]) was > 54.6 µM (inactive) and the IC50 (Beta-lactamase [7]) was 0.399 µM (active). For the same compound, the EC50 (Insulin-degrading enzyme [8]) was > 54.6 µM (inactive), the EC50 (Insulin-degrading enzyme [9]) was > 54.6 µM (inactive) and the IC50 (NS3) was 7.38 µM (active). The IC50 (HEK293 [10]) was > 89.1 µM (inactive) and the IC50 [11] was > 20 µM (inactive).

In the case of O=C(N/N=C/c1cc(Br)c(O)c(Br)c1)c1cc2c(ccc3ccccc32)o1, the IC50 (Large T antigen) is reported as 19.9 µM (active), the EC50 [12] is reported as 1.45 µM (active) and the EC50 [13] is reported as 0.763 µM (active). The IC50 [14] was > 50 µM (active), the EC50 [15] was 64.7 µM (active) and the EC50 [16] was 2.58 µM (active).

With Clc1ccc(-n2c(-c3cccc(Br)c3)nc3nc4ccccc4nc32)cc1 the EC50 [17] was 1.58 µM (active), the EC50 [18] was 2.98 µM (active) and the EC50 (Streptococcus) was 79.4 µM (active). For the same compound, the IC50 [19] was > 100 µM (active), the IC50 (HEK293 [20]) was 5.7 µM (active) and the EC50 [21] was 10.1 µM (not active). For the same compound, the EC50 [22] was 12 µM (not active) and the EC50 (Streptokinase A) was > 150 µM (not active).
